Measured values reported in patent publication US12428428B2, “Tricyclic tetrahydroisoquinoline derivative, preparation method therefor and application thereof in medicine” (JIANGSU HENGRUI MEDICINE CO., LTD., priority 2020, dated 2025).

What was measured:
MCF-7 cells = assay: Inhibition of proliferation of MCF-7 cells (ATP method, Cell Titer-Glo); assay type: cell-based; settings: Homo sapiens, MCF7; MCF-7 cells, 72 h
Protocol: This experiment was intended to test the inhibitory effects of the compounds disclosed herein on the proliferation of MCF-7 Cells by using the ATP method, and to evaluate the in vitro activity of the compounds according to the IC50 values.
MCF-7 cells (TCHu74, National Collection of Authenticated Cell Cultures) were seeded into a 96-well plate with an MEM (hyclone, SH30024.01B) medium containing 10% FBS (Gibco, 10099-141), 1% sodium pyruvate (sigma, 58636) and 1% non-essential amino acid (sigma, M7145) at a density of 4,000 cells/well and cultured at 37° C. with 5% CO2. 20 mM stock solutions of the compounds are prepared, serially diluted with 100% DMSO to a final concentration of 1000×, and then diluted 20-fold with a medium containing 2% FBS. After the cells were cultured for 24 h, the medium was removed. 90 μL of the medium containing 2% FBS and 10 μL of a drug were added to each well, and 10 μL of DMSO was added to the control group. The mixtures were well mixed by gentle shaking. The blank group contained only 100 μL of the medium containing 2% FBS. The cells were cultured in an incubator at 37° C. with 5% CO2 for 72 h, and then 50 μL of mixed Cell Titer-Glo (Promega, G7571) was added to each well. The mixtures were well mixed by shaking and let stand at room temperature for 10 min, and the chemiluminescence signal values were determined.
The chemiluminescence signal value was plotted against the compound concentration (in log form) using Graphpad Prism, and the IC50 values of the compounds were obtained.

[1] = test system: ERα Y537S mutant-expressing MCF7 cells; assay: Inhibition of proliferation of ERα mutant-expressing MCF7 cells; assay type: cell-based; settings: Homo sapiens, 144 h
Excerpt: The mutant estrogen receptor α (ERα) Y537S of human ERα protein was obtained by site-directed mutagenesis in a two-primer PCR manner using the cDNA of wild-type ESR1 gene (Accession No. NM000125) as a template. The sequences of the primers used in the mutation are as follows (the underlined nucleotides are the sites of mutation): Y537S: F-AAGAACGTGGTGCCCCTCTCTGACCTGCTGCTGGAGATG (SEQ ID NO: 1); R-CATCTCCAGCAGCAGGTCAGAGAGGGGCACCACGTTCTT (SEQ ID NO: 2). The cDNA of the mutant ESR1 was cloned into the lentiviral vector of interest pCDH-CMV-MCS-EF1-Puro. The lentiviral plasmid bearing the mutant ESR1 gene sequence and the lentiviral packaging plasmid were then transfected into HEK-293T cells (ATCC, CRL-3216) by using Lipofectamine 3000 Transfection Reagent (ThermoFisher Scientific, Cat #L3000075). Forty-eight hours after transfection, the virus-bearing medium supernatant was filtered and ultracentrifuged to obtain a virus precipitate, which was then resuspended in an appropriate amount of medium. The suspension was added to MCF7 cells (ATCC, HTB-22), followed by the addition of polybrene at a final concentration of 8 μg/mL. The mixture was incubated overnight. Two days after transfection, 1 μg/mL puromycin was added to the cell culture liquid for resistance screening. About two weeks later, an MCF7 cell line capable of stably expressing the ERαY537S mutant was obtained.
The ERα mutant-expressing MCF7 cells were cultured in an MEM (GE Healthcare, SH30024.01) complete medium containing 10% fetal bovine serum. On the first day of the experiment, the cells were seeded into a 96-well plate with complete medium at a density of 3,000 cells/well to form 100 μL of cell suspension per well. The plate was incubated overnight in a cell incubator at 37° C. with 5% CO2. The following day the medium was removed, and 135 μL of an MEM incomplete medium containing 2% fetal bovine serum, and 15 μL of a test compound prepared at different concentrations with the incomplete medium were added to each well. The final concentrations of the compound were 9 concentration points obtained by 4-fold serial dilution from 100 nM. A blank control containing 0.5% DMSO was set. The plate was incubated in a cell incubator at 37° C. with 5% CO2 for 144 h. On day 8, the 96-well cell culture plate was taken out. 150 μL of CellTiter-Glo® Luminescent Cell Viability Assay (Promega, G7573) was added to each well. The plate was let stand at room temperature for 10 min, and the luminescence signal values was read using a multilabel microplate reader (PerkinElmer, VICTOR 3). The IC50 values for the inhibitory activity of the compounds were calculated according to the compound concentrations and the luminescence signal values and are shown in Table 3.

Row | SMILES | IC50 (MCF-7 cells) | IC50 [1]
1 | C[C@@H]1Cc2cc3c(cc2[C@@H](c2ccc(N[C@H]4CCN(CCCF)C4)cc2)N1CC(F)(F)F)OCO3 [Example 1, (S)-1-(3-fluoropropyl)-N-(4-((5R,7R)-7-methyl-6-(2,2,2-trifluoroethyl)-5,6,7,8-tetrahydro-[1,3]dioxolo[4,5-g]isoquinolin-5-yl)phenyl)pyrrolidin-3-amine] | 0.31 nM | 1.38 nM
2 | C[C@@H]1Cc2cc3c(cc2[C@@H](c2c(F)cc(N[C@H]4CCN(CCCF)C4)cc2F)N1CC(F)(F)F)OCO3 [Example 2, (S)—N-(3,5-difluoro-4-((5S,7R)-7-methyl-6-(2,2,2-trifluoroethyl)-5,6,7,8-tetrahydro-[1,3]dioxolo[4,5-g]isoquinolin-5-yl)phenyl)-1-(3-fluoropropyl)pyrrolidin-3-amine] | 0.17 nM | 0.78 nM
3 | C[C@@H]1Cc2cc3c(cc2[C@@H](c2ccc(N[C@H]4CCN(CCCF)C4)cc2)N1CC(F)(F)CO)OCO3 [Example 3, 2,2-Difluoro-3-((5R,7R)-5-(4-(((S)-1-(3-fluoropropyl)pyrrolidin-3-yl)amino)phenyl)-7-methyl-7,8-dihydro-[1,3]dioxolo[4,5-g]isoquinolin-6(5H)-yl)propan-1-ol] | 0.15 nM | 0.43 nM
4 | C[C@@H]1Cc2cc3c(cc2[C@@H](c2ccc(N[C@H]4CCN(CCCF)C4)cn2)N1CC(F)(F)CO)OCO3 [Example 4, 2,2-Difluoro-3-((5S,7R)-5-(5-(((S)-1-(3-fluoropropyl)pyrrolidin-3-yl)amino)pyridin-2-yl)-7-methyl-7,8-dihydro-[1,3]dioxolo[4,5-g]isoquinolin-6(5H)-yl)propan-1-ol] | 0.28 nM | 0.89 nM
5 | C[C@@H]1Cc2cc3c(cc2[C@@H](c2c(F)cc(N[C@H]4CCN(CCCF)C4)cc2F)N1CC(F)(F)CO)OCO3 [Example 5, 3-((5S,7R)-5-(2,6-difluoro-4-(((S)-1-(3-fluoropropyl)pyrrolidin-3-yl)amino)phenyl)-7-methyl-7,8-dihydro-[1,3]dioxolo[4,5-g]isoquinolin-6(5H)-yl)-2,2-difluoro-1-propanol] | 0.03 nM | 0.07 nM
6 | C[C@@H]1Cc2cc3c(cc2[C@@H](c2ccc(N[C@H]4CCN(CCCF)C4)cn2)N1CC(F)(F)F)OCO3 [Example 6, N—((S)-1-(3-fluoropropyl)pyrrolidin-3-yl)-6-((5S,7R)-7-methyl-6-(2,2,2-trifluoroethyl)-5,6,7,8-tetrahydro-[1,3]dioxolo[4,5-g]isoquinolin-5-yl)pyridin-3-amine] | 0.34 nM | 0.82 nM
7 | C[C@@H]1Cc2cc3c(cc2[C@@H](c2ncc(N[C@H]4CCN(CCCF)C4)cc2F)N1CC(F)(F)F)OCO3 [Example 9, 5-Fluoro-N—((S)-1-(3-fluoropropyl)pyrrolidin-3-yl)-6-((5S,7R)-7-methyl-6-(2,2,2-trifluoroethyl)-5,6,7,8-tetrahydro-[1,3]dioxolo[4,5-g]isoquinolin-5-yl)pyridin-3-amine] | 0.35 nM | 1.35 nM
8 | C[C@@H]1Cc2cc3c(cc2[C@@H](c2ncc(N[C@H]4CCN(CCCF)C4)cc2F)N1CC(F)(F)CO)OCO3 [Example 11, 2,2-Difluoro-3-((5S,7R)-5-(3-fluoro-5-(((S)-1-(3-fluoropropyl)pyrrolidin-3-yl)amino)pyridin-2-yl)-7-methyl-7,8-dihydro-[1,3]dioxolo[4,5-g]isoquinolin-6(5H)-yl)propan-1-ol] | 0.23 nM | 0.71 nM
9 | [2H]C1([2H])Oc2cc3c(cc2O1)[C@@H](c1ccc(N[C@H]2CCN(CCCF)C2)cn1)N(CC(F)(F)CO)[C@H](C)C3 [Example 12, 2,2-Difluoro-3-((5S,7R)-5-(5-(((S)-1-(3-fluoropropyl)pyrrolidin-3-yl)amino)pyridin-2-yl)-7-methyl-7,8-dihydro-[1,3]dioxolo[4,5-g]isoquinolin-6(5H)-yl-2,2-d2)propan-1-ol] | 1.12 nM | 3.49 nM
10 | [2H]C1([2H])Oc2cc3c(cc2O1)[C@@H](c1ccc(NC2CN(CCCF)C2)cn1)N(CC(F)(F)CO)[C@H](C)C3 [Example 13, 2,2-Difluoro-3-((5S,7R)-5-(5-((1-(3-fluoropropyl)azetidin-3-yl)amino)pyridin-2-yl)-7-methyl-7,8-dihydro-[1,3]dioxolo[4,5-g]isoquinolin-6(5H)-yl-2,2-d2)propan-1-ol] | 0.29 nM | 1.36 nM
11 | C[C@@H]1Cc2cc3c(cc2[C@@H](c2ccc(NC4CN(CCCF)C4)cn2)N1CC(F)(F)CO)OCO3 [Example 14, 2,2-Difluoro-3-((5S,7R)-5-(5-((1-(3-fluoropropyl)azetidin-3-yl)amino)pyridin-2-yl)-7-methyl-7,8-dihydro-[1,3]dioxolo[4,5-g]isoquinolin-6(5H)-yl)propan-1-ol] | 0.36 nM | 1.27 nM
12 | C[C@@H]1Cc2cc3c(cc2[C@@H](c2c(F)cc(O[C@H]4CCN(CCCF)C4)cc2F)N1CC(F)(F)F)OCO3 [Example 15, (5S,7R)-5-(2,6-difluoro-4-(((S)-1-(3-fluoropropyl)pyrrolidin-3-yl)oxy)phenyl)-7-methyl-6-(2,2,2-trifluoroethyl)-5,6,7,8-tetrahydro-[1,3]dioxolo[4,5-g]isoquinoline] | 0.3 nM | 0.68 nM
13 | C[C@@H]1Cc2cc3c(cc2[C@@H](c2ccc(NC4CN(CCCF)C4)cn2)N1CC(F)(F)F)OCO3 [Example 17, N-(1-(3-fluoropropyl)azetidin-3-yl)-6-((5S,7R)-7-methyl-6-(2,2,2-trifluoroethyl)-5,6,7,8-tetrahydro-[1,3]dioxolo[4,5-g]isoquinolin-5-yl)pyridin-3-amine] | 0.44 nM | 2.19 nM
14 | C[C@@H]1Cc2cc3c(cc2[C@@H](c2ccc(NC4CN(CCCF)C4)cc2)N1CC(F)(F)CO)OCO3 [Example 18, 2,2-Difluoro-3-((5R,7R)-5-(4-((1-(3-fluoropropyl)azetidin-3-yl)amino)phenyl)-7-methyl-7,8-dihydro-[1,3]dioxolo[4,5-g]isoquinolin-6(5H)-yl)propan-1-ol] | 0.07 nM | 0.25 nM
15 | [2H]C1([2H])Oc2cc3c(cc2O1)[C@@H](c1ccc(N[C@H]2CCN(CCCF)C2)cc1)N(CC(F)(F)CO)[C@H](C)C3 [Example 19, 2,2-Difluoro-3-((5R,7R)-5-(4-(((S)-1-(3-fluoropropyl)pyrrolidin-3-yl)amino)phenyl)-7-methyl-7,8-dihydro-[1,3]dioxolo[4,5-g]isoquinolin-6(5H)-yl-2,2-d2)propan-1-ol] | 0.07 nM | 0.43 nM
